Settings: for log10 BCF / log10 biotransformation half-life (days): fish

## c1ccc2c(c1)OCCOCCOc1ccccc1OCCOCCO2
  melting point: 163 °C

## CC(=O)C1C(=O)C=C(C)OC1=O (stereo not drawn)
  boiling point: 270 °C
  log10 vapour pressure (mmHg): -2.9
  melting point: 109 °C
  ready biodegradability: readily biodegradable

## COC(=O)[C@@H](N)Cc1ccc(O)cc1
  melting point: 137 °C

## COC(=O)c1ccccc1CS(=O)(=O)NC(=O)Nc1nc(OC)cc(OC)n1
  log10 Koc (L/kg): 2.5
  log10 vapour pressure (mmHg): -13.7
  melting point: 187 °C

## Brc1cncc(Br)c1
  boiling point: 222 °C
  melting point: 112 °C

## NCCS
  melting point: 98 °C

## Cc1cc(O)c(C(C)(C)C)cc1C(C)(C)C
  boiling point: 282 °C
  melting point: 62.1 °C

## Cc1c(N)cccc1Cl
  boiling point: 245 °C
  melting point: 1 °C

## Cc1ccc(C(=O)c2ccccc2)cc1C
  boiling point: 341 °C
  melting point: 47.5 °C

## CC1CCCC(C(C)C)C1 (stereo not drawn)
  boiling point: 166 °C

## FC(F)(Cl)Cl
  boiling point: -29.8 °C
  log10 Henry constant (atm·m³/mol): -0.465
  log10 vapour pressure (mmHg): 3.69
  melting point: -158 °C
  ready biodegradability: not readily biodegradable
  log10 BCF: 0.79

## O=c1oc2ccccc2c(O)c1C(CC(O)c1ccc(Cl)cc1)c1ccc(Cl)s1 (stereo not drawn)
  melting point: 104 °C

## COc1cc2c(cc1OC)[C@@]13CCN4CC5=CCO[C@H]6CC(=O)N2[C@H]1[C@H]6[C@H]5C[C@H]43
  melting point: 178 °C

## CC(Cl)C(Cl)(Cl)C=O (stereo not drawn)
  boiling point: 164 °C

## CC(Cl)C(C)(C)Cl (stereo not drawn)
  boiling point: 129 °C

## CCCCCCCCCCCCCCCCCC#N
  boiling point: 362 °C
  melting point: 41 °C

## CCCCC(CC)CN1C(=O)C2C3C=CC(C3)C2C1=O (stereo not drawn)
  log10 vapour pressure (mmHg): -4.74

## CC(C)(C)CCl
  boiling point: 84.3 °C
  melting point: -20 °C

## NNC(=O)Nc1ccccc1
  melting point: 128 °C

## O=[N+]([O-])c1ccc2ccccc2c1
  boiling point: 314 °C
  melting point: 79 °C

## CCC(=O)c1cccc(C)c1
  boiling point: 235 °C

## C=CCCCC
  boiling point: 63.4 °C
  log10 Koa: 2.41
  log10 vapour pressure (mmHg): 2.26
  melting point: -140 °C
  ready biodegradability: readily biodegradable

## Nc1c(Br)cc([N+](=O)[O-])cc1[N+](=O)[O-]
  melting point: 154 °C

## O=C(Oc1cccc2cccnc12)c1ccccc1
  melting point: 119 °C
  ready biodegradability: readily biodegradable

## CCCC=O
  log10 Henry constant (atm·m³/mol): -3.94
  log10 Koa: 3.39
  log10 vapour pressure (mmHg): 2.05
  melting point: -99 °C
  ready biodegradability: readily biodegradable

## Fc1ccc(-c2ccc(F)cc2)cc1
  boiling point: 254 °C
  melting point: 94.5 °C

## CN(C)N
  boiling point: 63.9 °C
  log10 vapour pressure (mmHg): 2.21
  melting point: -58 °C
  ready biodegradability: not readily biodegradable

## c1ccc(N=Nc2ccc(Nc3ccccc3)cc2)cc1
  melting point: 90 °C

## CCCCCCCCCCCCCCCCCCC(C)c1ccccc1 (stereo not drawn)
  melting point: 29 °C

## CCOCCl
  boiling point: 83 °C

## CC(=O)N(C(C)=O)c1ccccc1
  melting point: 37.5 °C

## CC=C(Cl)CCl
  boiling point: 130 °C

## CC(C)(C#N)Nc1nc(Cl)nc(NC2CC2)n1
  melting point: 170 °C

## CCCCCCC[N+](=O)[O-]
  boiling point: 194 °C

## CC(Cl)CC(Cl)Cl (stereo not drawn)
  boiling point: 152 °C

## CCC(C(N)=O)c1ccccc1 (stereo not drawn)
  melting point: 86 °C

## Cc1ccc(Br)cc1C
  boiling point: 214 °C
  melting point: -0.2 °C

## Clc1ccc(-c2ccc(Cl)c(Cl)c2)c(Cl)c1
  log10 Henry constant (atm·m³/mol): -3.92
  log10 Koa: 9.02
  log10 vapour pressure (mmHg): -4.33
  log10 biotransformation half-life (days): 2.07

## c1ccc(CNc2[nH]cnc3ncnc2-3)cc1
  log10 vapour pressure (mmHg): -10.7
  melting point: 233 °C

## CSc1nnc(C(C)(C)C)c(=O)n1/N=C/C(C)C
  log10 vapour pressure (mmHg): -6.46
  melting point: 159 °C

## OCc1ccc(Cl)cc1
  boiling point: 235 °C
  melting point: 75 °C

## CC(C)(C)NC(=O)COC(=O)c1ccccc1
  melting point: 112 °C

## CCCCOC(=O)c1ccccc1C(=O)OCCCC
  boiling point: 340 °C
  log10 Henry constant (atm·m³/mol): -5.74
  log10 Koc (L/kg): 3.14
  log10 vapour pressure (mmHg): -4.7
  melting point: -35 °C
  ready biodegradability: readily biodegradable
  log10 BCF: 2.22
  log10 biotransformation half-life (days): -0.4

## c1ccc2c(c1)ccc1c2ccc2c3ccccc3ccc21
  boiling point: 519 °C
  melting point: 368 °C

## Oc1ccccc1C1CCCC1
  melting point: 34.5 °C

## CC1=NN(c2cc(Cl)c(S(=O)(=O)O)cc2Cl)C(=O)C1
  ready biodegradability: not readily biodegradable
  log10 BCF: 1.51

## CCOC(C)CC (stereo not drawn)
  boiling point: 81 °C

## CCC1=C(C[C@@H]2NCCc3cc(OC)c(OC)cc32)C[C@H]2c3cc(OC)c(OC)cc3CCN2C1
  melting point: 95 °C

## NC(=O)c1ccc(F)cc1
  melting point: 156 °C

## CCC(C)CCC(C)(C)C (stereo not drawn)
  boiling point: 151 °C

## C=CCCCCCCCCC(=O)OCC
  boiling point: 264 °C
  melting point: -38 °C

## CC(=CC(C)(C)C)CC(C)(C)C
  log10 biotransformation half-life (days): 0.7

## FC(F)(F)C1(F)C(F)(F)C(F)(F)C(F)(F)C(F)(C(F)(F)F)C1(F)F (stereo not drawn)
  boiling point: 102 °C
  melting point: -70 °C

## CC(C)(C)c1ccc(CSc2cnn(C(C)(C)C)c(=O)c2Cl)cc1
  log10 vapour pressure (mmHg): -5.93
  melting point: 112 °C

## O=C1CCCC1
  boiling point: 130 °C
  log10 Henry constant (atm·m³/mol): -5
  log10 Koa: 3.67
  log10 vapour pressure (mmHg): 1.06
  melting point: -51.3 °C

## C=CC=O
  boiling point: 52.6 °C
  log10 Henry constant (atm·m³/mol): -3.91
  log10 vapour pressure (mmHg): 2.44
  melting point: -87.7 °C
  ready biodegradability: not readily biodegradable
